Reference: ChEMBL document CHEMBL5608199, “Quaternized antimicrobial peptide mimics based on harmane as potent anti-MRSA agents by multi-target mechanism covering cell wall, cell membrane and intracellular targets” (Eur J Med Chem, 2024)
Converted amounts (≈) assume the structure as drawn. The source made the active and inactive calls. The rule behind the calls is not given here.

Key:
Staphylococcus aureus [1] = assay: Antibacterial activity against methicillin-resistant Staphylococcus aureus ATCC 33591 assessed as reduction in LDH activity; format: functional, organism-based; details: dose 0-4 µg/ml
Staphylococcus aureus [2] = assay: Antibacterial activity against methicillin-resistant Staphylococcus aureus ATCC 33591 infected in cyclophosphamide treated female KM mouse skin infection model assessed as reduction in bacterial load in abscess administered for 4 days and measured on day 5; format: functional, organism-based; details: dose 3.3-13.2 mg/kg, time 5.0 day
Staphylococcus aureus [3] = assay: Antibacterial activity against methicillin-resistant Staphylococcus aureus CGMCC 1.12409 incubated for 18 hrs by two fold serial broth dilution method; format: functional
Staphylococcus aureus [4] = assay: Antibacterial activity against methicillin-resistant Staphylococcus aureus ATCC 33591 infected in cyclophosphamide treated female KM mouse skin infection model assessed as log reduction in bacterial load in abscess at 3.3 mg/kg administered for 4 days and measured on day 5; format: functional; details: time 5 day
Staphylococcus aureus [5] = assay: Antibacterial activity against methicillin-resistant Staphylococcus aureus ATCC 33591 assessed as inhibition of bacterial growth at 0.5 ug/ml measured after 8 hrs relative to control; format: functional
Cell membrane [6] = assay: Induction of membrane depolarization in methicillin-resistant Staphylococcus aureus ATCC 33591 assessed as increase in fluorescence intensity at 1 to 4 times MIC measured after 0 to 120 mins by DiSC3(5) staining based assay; format: cell membranes; details: time 0-120 min
Staphylococcus aureus [7] = assay: Antibacterial activity against methicillin-resistant Staphylococcus aureus ATCC 33591 assessed as reduction in LDH activity at 4 ug/ml measured after 8 hrs relative to control; format: functional; design: scale not given: the % may be the effect or the level left; details: dose 4 µg/ml
Staphylococcus aureus [8] = assay: Antibacterial activity against methicillin-resistant Staphylococcus aureus clinical isolate M-15 incubated for 18 hrs by two fold serial broth dilution method; format: functional
Staphylococcus aureus [9] = assay: Antibacterial activity against methicillin-resistant Staphylococcus aureus ATCC 33591 infected in cyclophosphamide treated female KM mouse skin infection model assessed as log reduction in bacterial load in abscess at 13.2 mg/kg administered for 4 days and measured on day 5; format: functional; details: time 5 day
Cell membrane [10] = assay: Induction of membrane depolarization in methicillin-resistant Staphylococcus aureus ATCC 33591 assessed as increase in fluorescence intensity at 1 to 4 times MIC by DiSC3(5) staining based assay; format: cell membranes; details: time 0-120 min, TDE = time-dependent effect
[11] = Hemolytic activity at sheep Red blood cells at 256 ug/ml; format: toxicity, cell-based, Ovis aries, Erythrocyte; details: sheep red blood cells (erythrocytes), at 256 µg/mL, read-out: Activity
Calf thymus DNA [12] = assay: Binding affinity to calf thymus DNA assessed as reduction in fluorescence intensity at 3 x 10^-5M by fluorescence spectroscopy; format: nucleic-acid assay; details: Bos taurus; dose 3.0 10^-5M
Staphylococcus aureus [13] = assay: Antibacterial activity against Staphylococcus aureus ATCC 29213 incubated for 18 hrs by two fold serial broth dilution method; format: functional
Staphylococcus aureus [14] = assay: Induction of oxidative damage in methicillin-resistant Staphylococcus aureus ATCC 33591 assessed as loss of GSH activity; format: functional, organism-based; details: dose 0-4 µg/ml
Erythrocyte = assay: Hemolytic activity at sheep Red blood cells at 0.5 to 128 ug/ml; format: toxicity, cell-based, Ovis aries; details: dose 0.5-128 µg/ml
[15] = Stability in sheep plasma assessed as increase in MIC measured after 0 to 6 hrs; format: ADME, cell-free, Ovis aries; details: time 0-6 hrs
Lipoteichoic acid = assay: Displacement of BODIPY-TR-cadaverine from methicillin-resistant Staphylococcus aureus ATCC 33591 lipoteichoic acid assessed as increase in fluorescence intensity; details: dose 0.5-4 µg/ml
Cell membrane [16] = assay: Disruption of membrane integrity in methicillin-resistant Staphylococcus aureus ATCC 33591 assessed as increase in nucleic acid leakage; format: cell membranes; details: dose 0-4 µg/ml
Staphylococcus aureus [17] = assay: Antibacterial activity against methicillin-resistant Staphylococcus aureus clinical isolate M-18 incubated for 18 hrs by two fold serial broth dilution method; format: functional
Calf thymus DNA [18] = assay: Binding affinity to calf thymus DNA assessed as increase in absorption wavelength intensity at 0 to 2.4 x 10^-5M by absorption spectroscopy; format: nucleic-acid assay; details: Bos taurus; dose 0-2.4 10^-5M
Staphylococcus aureus [19] = assay: Antibacterial activity against methicillin-resistant Staphylococcus aureus clinical isolate M-19 incubated for 18 hrs by two fold serial broth dilution method; format: functional
Staphylococcus aureus [20] = assay: Induction of morphological changes in methicillin-resistant Staphylococcus aureus ATCC 33591 assessed as appearance of cracked cell morphology at 1 ug/ml measured after 6 hrs by SEM analysis; format: functional, organism-based; details: dose 1.0 µg/ml
Staphylococcus aureus [21] = assay: Induction of morphological changes in methicillin-resistant Staphylococcus aureus ATCC 33591 assessed as appearance of adhesive cell morphology at 1 ug/ml measured after 6 hrs by SEM analysis; format: functional, organism-based; details: dose 1.0 µg/ml
Staphylococcus aureus [22] = assay: Bactericidal activity against methicillin-resistant Staphylococcus aureus ATCC 33591 assessed as log reduction in viable bacterial count at 8 times MIC measured after 10 hrs by time-kill assay; format: functional
[23] = Cytotoxicity against human HTR-8/SVneo cells assessed as cell viability at 0.5 ug/ml by CCK-8 assay relative to control; format: toxicity, cell-based; details: at 0.5 µg/mL, read-out: Activity
Staphylococcus aureus [24] = assay: Induction of ROS generation in methicillin-resistant Staphylococcus aureus ATCC 33591 assessed as fold increase in ROS level at 0.5 ug/ml relative to control; format: functional; details: dose 0.5 µg/ml
Staphylococcus aureus [25] = assay: Antibacterial activity against methicillin-resistant Staphylococcus aureus ATCC 33591 assessed as reduction in metabolic activity by alamar blue assay; format: functional, organism-based; details: dose 0-4 µg/ml
Staphylococcus aureus [26] = assay: Antibacterial activity against methicillin-resistant Staphylococcus aureus clinical isolate M-20 incubated for 18 hrs by two fold serial broth dilution method; format: functional
Staphylococcus aureus [27] = assay: Antibacterial activity against methicillin-resistant Staphylococcus aureus ATCC 33591 incubated for 18 hrs by two fold serial broth dilution method; format: functional
[28] = Cytotoxicity against human HTR-8/SVneo cells assessed as cell viability at 8 ug/ml by CCK-8 assay relative to control; format: toxicity, cell-based; details: at 8 µg/mL, read-out: Activity
Staphylococcus aureus [29] = assay: Induction of oxidative damage in methicillin-resistant Staphylococcus aureus ATCC 33591 assessed as reduction in SOD activity; format: functional, organism-based; details: dose 0-4 µg/ml
Cell membrane [30] = assay: Disruption of membrane integrity in methicillin-resistant Staphylococcus aureus ATCC 33591 assessed as increase in fluorescence intensity by PI staining based fluorescence assay; format: cell membranes; details: dose 0-4 µg/ml
Staphylococcus aureus [31] = assay: Antibacterial activity against methicillin-resistant Staphylococcus aureus ATCC 33591 infected in cyclophosphamide treated female KM mouse skin infection model assessed as reduction in inflammatory cell infiltration at 3.3 to 13.2 mg/kg administered for 4 days and measured on day 5 by H and E staining based analysis; format: functional, organism-based; details: dose 3.3-13.2 mg/kg, time 5.0 day
Staphylococcus aureus [32] = assay: Antibacterial activity against methicillin-resistant Staphylococcus aureus ATCC 33591 infected in cyclophosphamide treated female KM mouse skin infection model assessed as reduction in number of bacterial clones in skin at 3.3 to 13.2 mg/kg administered for 4 days and measured on day 5; format: functional, organism-based; details: dose 3.3-13.2 mg/kg, time 5.0 day
Staphylococcus aureus [33] = assay: Induction of morphological changes in methicillin-resistant Staphylococcus aureus ATCC 33591 assessed as appearance of irregular cell morphology at 1 ug/ml measured after 6 hrs by SEM analysis; format: functional, organism-based; details: dose 1.0 µg/ml
Staphylococcus aureus [34] = assay: Induction of ROS generation in methicillin-resistant Staphylococcus aureus ATCC 33591 assessed as increase in ROS level; format: functional, organism-based; details: dose 0-4 µg/ml
Staphylococcus aureus [35] = assay: Antibacterial activity against methicillin-resistant Staphylococcus aureus ATCC 43300 incubated for 18 hrs by two fold serial broth dilution method; format: functional
Cell membrane [36] = assay: Disruption of membrane integrity in methicillin-resistant Staphylococcus aureus ATCC 33591 assessed as fold increase in nucleic acid leakage at 1 ug/ml relative to control; format: cell membranes; details: dose 1.0 µg/ml
Staphylococcus aureus [37] = assay: Antibacterial activity against methicillin-resistant Staphylococcus aureus clinical isolate M-16 incubated for 18 hrs by two fold serial broth dilution method; format: functional
Staphylococcus aureus [38] = assay: Antibacterial activity against methicillin-resistant Staphylococcus aureus clinical isolate M-14 incubated for 18 hrs by two fold serial broth dilution method; format: functional
Staphylococcus aureus [39] = assay: Antibacterial activity against methicillin-resistant Staphylococcus aureus clinical isolate M-17 incubated for 18 hrs by two fold serial broth dilution method; format: functional
Staphylococcus aureus [40] = assay: Antibacterial activity against methicillin-resistant Staphylococcus aureus ATCC 33591 assessed as inhibition of bacterial growth in presence of 0 to 128 ug/ml peptidoglycan by exogenous addition assay (reference value: 0.5 ug/ml); format: functional
Staphylococcus aureus [41] = assay: Bacteriostatic activity against methicillin-resistant Staphylococcus aureus ATCC 33591 assessed as log reduction in viable bacterial count at 1 to 4 times MIC measured at 10 hrs by time-kill assay; format: functional
Cell membrane [42] = assay: Disruption of membrane integrity in methicillin-resistant Staphylococcus aureus ATCC 33591 assessed as appearance of blue and green fluorescence at 1 ug/ml by DAPI/SYTOX Green double staining assay; format: cell membranes; details: dose 1.0 µg/ml
Cell membrane [43] = assay: Disruption of membrane integrity in methicillin-resistant Staphylococcus aureus ATCC 33591 assessed as increase in protein leakage; format: cell membranes; details: dose 0-4 µg/ml
Escherichia coli = assay: Antibacterial activity against Escherichia coli ATCC 8739 incubated for 18 hrs by two fold serial broth dilution method; format: functional
Staphylococcus aureus [44] = assay: Antibacterial activity against Staphylococcus aureus CMCC 26003 incubated for 18 hrs by two fold serial broth dilution method; format: functional
Staphylococcus aureus [45] = assay: Antibacterial activity against methicillin-resistant Staphylococcus aureus ATCC 33591 assessed as neutralization of negative charge in cell wall by measuring increase in surface potential; format: functional, organism-based; details: dose 0-256 µg/ml
Staphylococcus aureus [46] = assay: Antibacterial activity against methicillin-resistant Staphylococcus aureus; format: functional
Staphylococcus sp. = assay: Antibacterial activity against Staphylococcus sp. 772 assessed as inhibition of bacterial growth incubated for 24 hrs by microdilution method; format: functional

Structure (SMILES): Cc1c2c(cc[n+]1C)c1ccccc1n2CCCCCCCCn1c2ccccc2c2cc[n+](C)c(C)c21.[I-].[I-]
- Activity (Staphylococcus aureus [1]): Dose-Dependent Effect
- Activity (Staphylococcus aureus [2]): Dose-Dependent Effect
- MIC (Staphylococcus aureus [3]): 1 µg/mL
- log(activity) (Staphylococcus aureus [4]): 1.27
- inhibition at 0.5 µg/mL (Staphylococcus aureus [5]): 100%
- Activity (Cell membrane [6]): Dose-Dependent Effect
- Activity (Staphylococcus aureus [7]): 87.21%
- MIC (Staphylococcus aureus [8]): 2 µg/mL
- log(activity) (Staphylococcus aureus [9]): 4.06
- Activity (Cell membrane [10]): Tde
- hemolysis at 256 ug/ml [11]: 7.71%
- Activity (Calf thymus DNA [12]): Active
- MIC (Staphylococcus aureus [13]): 4 µg/mL
- Activity (Staphylococcus aureus [14]): Dose-Dependent Effect
- Activity (Erythrocyte): Non-Toxic
- Stability [15]: Stable
- Activity (Lipoteichoic acid): Dose-Dependent Effect
- Activity (Cell membrane [16]): Dose-Dependent Effect
- MIC (Staphylococcus aureus [17]): 2 µg/mL
- Activity (Calf thymus DNA [18]): Active
- MIC (Staphylococcus aureus [19]): 1 µg/mL
- Activity (Staphylococcus aureus [20]): Active
- Activity (Staphylococcus aureus [21]): Active
- log(activity) (Staphylococcus aureus [22]): 3.44
- viability at 0.5 ug/ml [23]: 110%
- fold change (FC) (Staphylococcus aureus [24]): 1.25
- Activity (Staphylococcus aureus [25]): Dose-Dependent Effect
- MIC (Staphylococcus aureus [26]): 1 µg/mL
- MIC (Staphylococcus aureus [27]): 0.5 µg/mL
- viability at 8 ug/ml [28]: 97.8%
- Activity (Staphylococcus aureus [29]): Dose-Dependent Effect
- Activity (Cell membrane [30]): Dose-Dependent Effect
- Activity (Staphylococcus aureus [31]): Active
- Activity (Staphylococcus aureus [32]): Active
- Activity (Staphylococcus aureus [33]): Active
- Activity (Staphylococcus aureus [34]): Dose-Dependent Effect
- MIC (Staphylococcus aureus [35]): 2 µg/mL
- fold change (FC) (Cell membrane [36]): 28
- MIC (Staphylococcus aureus [37]): 1 µg/mL
- MIC (Staphylococcus aureus [38]): 1 µg/mL
- MIC (Staphylococcus aureus [39]): 1 µg/mL
- MIC (Staphylococcus aureus [40]): 8 µg/mL
- log(activity) (Staphylococcus aureus [41]): <3
- Activity (Cell membrane [42]): Active
- Activity (Cell membrane [43]): Dose-Dependent Effect
- MIC (Escherichia coli): 8 µg/mL
- MIC (Staphylococcus aureus [44]): 0.5 µg/mL
- Activity (Staphylococcus aureus [45]): Dose-Dependent Effect

Structure (SMILES): COc1ccc2c(c1)c1cc[n+](C)cc1n2CCCCCCCCn1c2ccc(OC)cc2c2cc[n+](C)cc21.[I-].[I-]
- MIC (Staphylococcus aureus [46]): 2 µg/mL

Structure (SMILES): Cc1nccc2c1[nH]c1ccccc12 [HARMAN]
- MIC (Staphylococcus aureus [3]): > 128 µg/mL
- MIC (Staphylococcus sp.): 18 µg/mL (≈ 98.8 µM)
- MIC (Staphylococcus aureus [13]): 128 µg/mL (≈ 702 µM)
- MIC (Staphylococcus aureus [27]): 128 µg/mL (≈ 702 µM)
- MIC (Staphylococcus aureus [35]): 128 µg/mL (≈ 702 µM)
- MIC (Escherichia coli): 8 µg/mL (≈ 43.9 µM)
- MIC (Staphylococcus aureus [44]): 128 µg/mL (≈ 702 µM)
